# Measurements as given in the supplement of paper PMC10307832.
# What was measured:
# Assay in all cases: relative viability (nuclei count vs DMSO), 5 days (fraction); higher = more cells survive
# Vemurafenib + Crizotinib = compound: CCCS(=O)(=O)Nc1ccc(F)c(C(=O)c2c[nH]c3ncc(-c4ccc(Cl)cc4)cc23)c1F [Vemurafenib] + C[C@@H](Oc1cc(-c2cnn(C3CCNCC3)c2)cnc1N)c1c(Cl)ccc(F)c1Cl [Crizotinib] (partner 1 µM)
# Outline: (§1)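 Each reported value is a median over duplicate plates. It expresses relative viability: treated-well nuclei count divided by vehicle-well nuclei count. Lung cancer cell lines in 1536-well plates were dosed by pin tool a day after seeding, alone with one drug or with a fixed anchor-drug dose plus five library-drug doses (not always all listed) in √10 steps, and nuclei were counted after 5 days.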
# OSI-027 + Bortezomib = compound: COc1cccc2cc(-c3nc([C@H]4CC[C@H](C(=O)O)CC4)n4ncnc(N)c34)[nH]c12 [OSI-027] + CC(C)C[C@H](NC(=O)[C@H](Cc1ccccc1)NC(=O)c1cnccn1)B(O)O [Bortezomib] (partner 0.002 µM)
# Outline: as §1
# OSI-027 + Tozasertib = compound: COc1cccc2cc(-c3nc([C@H]4CC[C@H](C(=O)O)CC4)n4ncnc(N)c34)[nH]c12 [OSI-027] + Cc1cc(Nc2cc(N3CCN(C)CC3)nc(Sc3ccc(NC(=O)C4CC4)cc3)n2)n[nH]1 [Tozasertib] (partner 0.1 µM)
# Outline: as §1
# OSI-027 + Pemetrexed = compound: COc1cccc2cc(-c3nc([C@H]4CC[C@H](C(=O)O)CC4)n4ncnc(N)c34)[nH]c12 [OSI-027] + Nc1nc2[nH]cc(CCc3ccc(C(=O)N[C@@H](CCC(=O)O)C(=O)O)cc3)c2c(=O)[nH]1 [Pemetrexed] (partner 0.2 µM)
# Outline: as §1
Cell Line,relative viability (Vemurafenib + Crizotinib; first compound 0.03162 µM),relative viability (Vemurafenib + Crizotinib; first compound 0.1 µM),relative viability (Vemurafenib + Crizotinib; first compound 0.3162 µM),relative viability (Vemurafenib + Crizotinib; first compound 1 µM),relative viability (OSI-027 + Bortezomib; first compound 0.01 µM),relative viability (OSI-027 + Bortezomib; first compound 0.03162 µM),relative viability (OSI-027 + Bortezomib; first compound 0.1 µM),relative viability (OSI-027 + Bortezomib; first compound 0.3162 µM),relative viability (OSI-027 + Bortezomib; first compound 1 µM),relative viability (OSI-027 + Tozasertib; first compound 0.01 µM),relative viability (OSI-027 + Tozasertib; first compound 0.03162 µM),relative viability (OSI-027 + Tozasertib; first compound 0.1 µM),relative viability (OSI-027 + Tozasertib; first compound 0.3162 µM),relative viability (OSI-027 + Tozasertib; first compound 1 µM),relative viability (OSI-027 + Pemetrexed; first compound 0.01 µM),relative viability (OSI-027 + Pemetrexed; first compound 0.03162 µM),relative viability (OSI-027 + Pemetrexed; first compound 0.1 µM),relative viability (OSI-027 + Pemetrexed; first compound 0.3162 µM),relative viability (OSI-027 + Pemetrexed; first compound 1 µM)
SK-LU-1,0.855,0.905,0.664,0.72,1.01,1.26,0.75,0.655,0.404,0.295,0.331,0.303,0.248,0.241,1.02,1.03,0.869,0.689,0.385
HCC-44,0.749,0.867,0.809,0.813,0.929,1,0.874,0.838,0.413,0.945,0.859,1.05,0.84,0.685,0.668,0.649,0.708,0.658,0.669
NCI-H460,0.808,0.809,0.692,0.942,1.41,1.14,0.862,0.94,0.139,0.511,0.338,0.469,0.593,0.278,0.0613,0.0659,0.0561,0.0523,0.0728
NCI-H1915,0.874,0.908,0.853,0.769,1.04,0.995,1.04,0.968,0.898,0.488,0.445,0.525,0.475,0.404,0.546,0.516,0.47,0.449,0.536
NCI-H2126,1.02,1.04,1.02,1.04,1.02,1.13,1.05,0.989,0.87,0.811,0.848,0.725,0.745,0.538,0.677,0.676,0.663,0.688,0.512
EPLC-272H,0.822,0.809,0.89,0.841,0.871,0.978,0.764,0.849,0.688,0.139,0.277,1.01,0.162,0.143,0.357,0.279,0.263,0.273,0.338
LCLC-103H,1.06,1.06,1.01,1.09,1.24,1.16,1.13,0.928,1,0.49,0.424,0.489,0.44,0.333,0.481,0.47,0.481,0.446,0.52
NCI-H661,0.819,1.07,,0.949,0.811,0.734,0.802,0.666,0.395,0.357,0.374,0.362,0.344,0.351,0.886,0.941,0.934,0.882,0.631
PC-3 [JPC-3],0.91,,1.01,1.01,0.816,0.731,0.807,0.877,0.815,1.03,0.808,0.844,0.841,0.351,0.464,1.1,0.775,0.84,0.785
NCI-H2087,0.844,1,,0.79,0.82,0.879,0.938,0.859,0.412,0.228,0.254,0.257,0.234,0.188,0.696,0.674,0.694,0.533,0.338
NCI-H1666,1.02,,1.24,1.05,0.707,0.9,0.688,0.425,0.372,0.611,0.686,0.646,0.629,0.537,0.853,0.905,0.832,0.831,0.787
NCI-H2009,1.02,0.924,0.754,0.962,1.07,1.09,0.933,0.929,0.592,0.759,0.621,0.717,0.755,0.444,1.15,1.05,1.04,0.998,0.687
NCI-H2228,0.428,0.417,0.688,0.469,0.977,1.01,0.999,,0.65,0.246,0.242,0.242,0.207,0.16,0.43,0.348,0.322,0.327,0.208
LCLC-97TM1,0.287,0.246,0.301,0.278,0.271,0.554,0.369,0.154,0.193,0.299,0.192,0.228,0.18,0.0982,0.178,0.207,0.147,0.186,0.15
NCI-H596,0.97,1.01,0.992,1.09,0.869,1.02,0.884,0.897,0.892,0.999,0.804,0.859,0.811,0.47,0.436,0.576,0.463,0.475,0.504
BEN,0.812,0.9,0.603,0.817,0.653,0.83,0.488,0.379,0.389,0.566,0.625,0.469,0.529,0.383,0.78,0.754,0.472,0.586,0.46
LU99A,0.531,0.489,0.516,0.526,1.11,0.967,0.981,0.604,0.252,0.249,0.302,0.252,0.239,0.175,0.181,0.362,0.173,0.239,0.159
